Reference: patent US8686050B2, “Diglycidic ether derivative therapeutics and methods for their use” (British Columbia Cancer Agency Branch, priority 2008, dated 2014)
“Also recorded” adds a separate entry of the source. Structures can show the parent of a compound that is named as a salt.

What was measured:
[1] = target: T1, glucocorticoid receptor (GR) (Homo sapiens, UniProt P04150); assay: GRE-luciferase reporter, steroid receptor specificity; assay type: cell-based; details: LNCaP cells transfected with GR, steroid 10 nM; 185-9-2 5 μg/ml
T1 construct: Cells were co-transfected with expression plasmids for full-length hGR, PRβ and the relative reporter; expressed in transfected cells; host or cells: LNCaP
T1 sequence (P04150 1-777): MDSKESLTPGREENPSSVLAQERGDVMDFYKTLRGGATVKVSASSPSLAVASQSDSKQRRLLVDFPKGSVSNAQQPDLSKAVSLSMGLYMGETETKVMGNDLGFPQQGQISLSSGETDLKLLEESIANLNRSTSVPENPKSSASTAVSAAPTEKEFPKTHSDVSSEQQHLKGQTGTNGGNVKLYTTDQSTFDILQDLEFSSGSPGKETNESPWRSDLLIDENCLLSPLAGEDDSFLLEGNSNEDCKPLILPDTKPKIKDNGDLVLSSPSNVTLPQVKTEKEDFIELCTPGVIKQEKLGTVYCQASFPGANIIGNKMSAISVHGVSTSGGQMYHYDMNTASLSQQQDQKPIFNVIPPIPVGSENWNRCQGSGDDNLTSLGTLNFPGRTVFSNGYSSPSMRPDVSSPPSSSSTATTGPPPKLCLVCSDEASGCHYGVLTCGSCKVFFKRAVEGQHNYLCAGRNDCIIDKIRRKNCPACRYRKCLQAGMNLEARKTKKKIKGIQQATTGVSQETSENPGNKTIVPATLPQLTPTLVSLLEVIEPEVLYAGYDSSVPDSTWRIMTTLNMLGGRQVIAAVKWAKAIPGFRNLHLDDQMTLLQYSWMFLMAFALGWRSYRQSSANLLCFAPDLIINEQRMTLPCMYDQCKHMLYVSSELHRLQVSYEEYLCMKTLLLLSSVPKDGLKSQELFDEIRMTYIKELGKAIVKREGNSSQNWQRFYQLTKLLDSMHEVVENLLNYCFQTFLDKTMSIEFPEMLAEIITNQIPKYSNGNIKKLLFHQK
Description: Sequence similarities of amino acids in the AR with related human steroid receptors PR and glucocorticoid receptor (GR) are significant in some domains such as the DBD. The AR NTD shares less than 15% homology with the PR and GR, but these receptors interact with some of the same proteins (eg., SRC-1 and CBP). […] Cells were co-transfected with expression plasmids for full-length hGR, PRβ and the relative reporter (i.e., pGR-Luc or PRE-E1b-Luc reporters). Cells were then treated with ethanol vehicle, dexamethasone (GR), 4-pregnene-3,20 dione (progesterone) (PR) followed by measurement of luciferase activity. […] Some antiandrogens currently used in the clinic have progestational and glucocorticoidal activities. In adult males, the role of the PR activity is unclear.

PSA mRNA = assay: Endogenous PSA mRNA in LNCaP cells by QRT-PCR; assay type: cell-based, human; details: 185-9-2 5 μg/ml, R1881 1 nM 16 hours, normalized to GAPDH mRNA
Description: Induction of PSA mRNA by both R1881 (ligand-dependent) and FSK (ligand-independent) in LNCaP cells is dependent upon AR (Sadar, M. D., J. Biol. Chem. 274, 7777-7783 (1999); Wang G, Jones S J, Marra M A, Sadar M D, Oncogene 2006; 25:7311-23.). To test whether the compounds have an effect on endogenous gene expression, the levels of PSA mRNA in LNCaP cells exposed to R1881 were measured. LNCaP cells (in serum-free and phenol-red free media) were incubated with compounds for 1 hour before the addition of R1881 (1 nM) for an additional 16 hours before harvesting and isolating total RNA. Levels of mRNA were measured using QPCR. Levels of PSA mRNA were normalized to levels of GAPDH mRNA.

[2] = target: T2, VP16-ARTAD and Gal4-ARLBD (Homo sapiens, UniProt P10275); assay: N/C interaction, mammalian two-hybrid in CV1 cells; assay type: cell-based; details: R1881, 24 hr, 185-9-2 10 μg/ml, bicalutamide 10 μM
T2 construct: amino acids 1-565 of the AR NTD fused to VP16 at the N-terminus; the LBD of the AR (amino acids 628-919; Gal4-ARLBD; the C terminus); expressed in transfected cells; host or cells: CV1
T2 sequence (P10275 1-565): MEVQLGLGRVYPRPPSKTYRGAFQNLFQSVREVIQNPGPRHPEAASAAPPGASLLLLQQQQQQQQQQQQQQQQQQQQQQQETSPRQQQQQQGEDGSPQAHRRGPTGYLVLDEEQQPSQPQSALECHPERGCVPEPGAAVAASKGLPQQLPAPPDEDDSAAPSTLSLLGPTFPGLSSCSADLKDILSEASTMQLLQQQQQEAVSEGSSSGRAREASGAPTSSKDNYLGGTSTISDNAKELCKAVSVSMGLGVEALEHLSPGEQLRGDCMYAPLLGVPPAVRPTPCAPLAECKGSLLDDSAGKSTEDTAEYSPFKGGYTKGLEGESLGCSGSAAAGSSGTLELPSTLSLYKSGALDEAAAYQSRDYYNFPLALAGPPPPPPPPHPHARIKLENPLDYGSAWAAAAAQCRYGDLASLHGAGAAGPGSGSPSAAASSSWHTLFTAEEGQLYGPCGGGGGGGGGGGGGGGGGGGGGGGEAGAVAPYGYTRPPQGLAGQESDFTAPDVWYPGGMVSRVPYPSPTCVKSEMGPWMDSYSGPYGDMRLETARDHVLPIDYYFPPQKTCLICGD

LNCaP cells = assay: Androgen-dependent proliferation of LNCaP cells (BrdU incorporation); assay type: cell-based, human; details: R1881 0.1 nM, 4 days; 185-9-2 5 μg/ml, bicalutamide 10 μM
Description: The prostate gland is an androgen-dependent organ where androgens are the predominant mitogenic stimulus (Isaacs J T, Scott W W, Coffey D S., Prog Clin Biol Res. 1979; 33:133-44). This dependency on androgens provides the underlying rationale for treating prostate cancer with chemical or surgical castration. […] BrdU incorporation was measured 4 days later to indicate changes in proliferation in response to androgen (FIG. 12). […] Cancer Inst. Monogr. 49, 17-21).

## CC(C)(c1ccc(OCC(O)CO)cc1)c1ccc(OCC(O)CCl)cc1 (stereo not shown) [185-9-2, BADGE.HCL.H2O]
[1]
  GRE-luciferase activity in response to ligand: did NOT inhibit; also recorded: does NOT inhibit
PSA mRNA
  endogenous PSA mRNA induction by R1881: to almost baseline levels; also recorded: inhibited endogenous PSA gene expression
[2]
  androgen-stimulated N/C interaction: inhibit androgen-stimulated N/C interaction
LNCaP cells
  androgen-dependent proliferation of LNCaP cells (BrdU incorporation): blocked androgen-dependent proliferation; also recorded: as effective as bicalutamide
